# Test results from US10968203B2, “Pyrimidinyl-pyridyloxy-naphthyl compounds and methods of treating IRE1-related diseases and disorders” (Genentech, Inc., priority 2017, dated 2021).
# Values joined by “and” are separate entries in the source; they are usually repeats but may differ in a detail not shown here. Identical values can stand only once. Counter-ions that a name gives are not always drawn.
# Tested on: XBP1s-luc 293 LUC
# Experiment: cellular PD assay, XBP1s-LUC reporter (Example 903)
# Format: cell-based
# Settings: Table 1; read-out: XBP1s-luc 293 LUC (IC50)
# Method: Inhibition of IRE1α RNase activity was determined in an enzyme assay that measured cleavage of the XBP1 stem loop by autophosphorylated IRE1α. This assay format was chosen to ensure that inhibitors of either the IRE1α kinase or the RNase domains would be identified. Binding to the ATP pocket and inhibition of IRE1α kinase activity are not necessarily required to inhibit the RNase activity. Compounds were also profiled in cellular assays by direct measurement of XBP s (B-DNA assay) or by quantification of the luciferase signal in HT1080 XBP1-Luc, which carries a luciferase fusion that is only in frame and expressed from the spliced XBP1 transcript.
# Biological activity of Formula I or I′ compounds was measured by an IRE1 biochemical binding assay (Example 901), a biochemical RNase assay (Example 902), a cellular PD assay, XBP1s-LUC reporter (Example 903), and an IRE1α-based inhibition of multiple myeloma (MM) cell proliferation assay.
# All of the exemplary Formula I or I′ compounds in Tables 1 and 2 were made and characterized by LCMS [M+H]^+ (liquid chromatography mass spectroscopy) with detection of parent ion. All of the exemplary Formula I compounds in Tables 1 and 2 were prepared according to the procedures of the Schemes, General Procedures, and Examples. All of the exemplary Formula I or I′ compounds in Tables 1 and 2 were tested for binding to IRE1 (inositol requiring enzyme 1 alpha) and biological activity according to the assays and protocols of Example 901-903. Exemplary Formula I or I′ compounds in Tables 1 and 2 have the following structures, corresponding IUPAC names (ChemBioDraw, Version 12.0.2, CambridgeSoft Corp., Cambridge Mass.), and biological activity. Where more than one name is associated with a Formula I or I′ compound or intermediate in Tables 1 and 2 and the Experimental Procedures, the chemical structure shall define the compound. Assignment of configuration at chiral centers in separated stereoisomers may be tentative, and depicted in Tables 1 and 2 structures for illustrative purposes, before stereochemistry is definitively established, such as from x-ray crystallographic data. In some cases, stereoisomers are separated and tested for biological activity before the stereochemistry of the separated stereoisomers is determined; and stereochemistry in some instances was inferred based on structure-activity relationship (SAR) knowledge from previous compounds. In some cases, the compounds are tested as racemic or diastereomeric mixtures. Where more than one potency value is entered on a row, separated stereoisomers represented by the structure and name on that row were tested. Exemplary compounds of Formula I or I′ in Table 3 can be prepared using methods known in the art or according to procedures similar to those described in the Schemes, General Procedures, and Examples 101-500. Biological activities of compounds in Table 3 can be tested in biological assays, for example, those in Examples 901, 902 and 903 described herein.
row,SMILES,IC50
1,"CCCCNc1cccc2c(Oc3ncccc3-c3ccnc(N[C@H]4CCCNC4)n3)c(C)ccc12 [Example 197, (S)-4-(2-((5-(Butylamino)-2-methylnaphthalen-1-yl)oxy)pyridin-3-yl)-N-(piperidin-3-yl)pyrimidin-2-amine]",228 nM
2,"Cc1ccc2c(NC(=O)[C@@H]3C[C@@H]3C)cccc2c1Oc1ncccc1-c1ccnc(N[C@H]2CCCNC2)n1 (single isomer, unassigned) [Example 231]",53 nM and 33.3 nM
3,"Cc1ccc2c(NS(=O)(=O)CC(C)C)c(F)ccc2c1Oc1ncccc1-c1ccnc(N[C@@H]2CNC[C@H](C)C2)n1 [Example 369, N-(2-Fluoro-6-methyl-5-((3-(2-(((3S,5R)-5-methylpiperidin-3-yl)amino)pyrimidin-4-yl)pyridin-2-yl)oxy)naphthalen-1-yl)-2-methylpropane-1-sulfonamide]",19.4 nM
4,"Cc1ccc2c(NC(=O)[C@@H]3CC34CC4)c(F)ccc2c1Oc1ncccc1-c1ccnc(N[C@H]2CCCNC2)n1 (single isomer, unassigned) [Example 380]",56.6 nM
5,"Cc1ccc2c(NCCCC(F)(F)F)cccc2c1Oc1ncccc1-c1ccnc(N[C@H]2CCCNC2)n1 [Example 344, (S)-4-(2-((2-Methyl-5-((4,4,4-trifluorobutyl)amino)naphthalen-1-yl)oxy)pyridin-3-yl)-N-(piperidin-3-yl)pyrimidin-2-amine]",350 nM
6,"Cc1ccc2c(NS(=O)(=O)CF)cccc2c1Oc1ncccc1-c1ccnc(N[C@H]2CCCNC2)n1 [Example 159, (S)-1-Fluoro-N-(6-methyl-5-(3-(2-(piperidin-3-ylamino)pyrimidin-4-yl)pyridin-2-yloxy)naphthalen-1-yl)methanesulfonamide]",174 nM
7,"Cc1ccc2c(NC(=O)CC(C)(C)C)cccc2c1Oc1ncccc1-c1ccnc(N[C@H]2CCCNC2)n1 [Example 198, (S)-3,3-Dimethyl-N-(6-methyl-5-((3-(2-(piperidin-3-ylamino)pyrimidin-4-yl)pyridin-2-yl)oxy)naphthalen-1-yl)butanamide]",161 nM
8,"Cc1ccc2c(NC(=O)[C@@H]3C[C@H]3C(F)F)cccc2c1Oc1ncccc1-c1ccnc(N[C@H]2CCCNC2)n1 [Example 293, (1R,2R)-2-(Difluoromethyl)-N-(6-methyl-5-((3-(2-(((S)-piperidin-3-yl)amino)pyrimidin-4-yl)pyridin-2-yl)oxy)naphthalen-1-yl)cyclopropane-1-carboxamide]",90.5 nM
9,"Cc1ccc2c(NC(=O)C3CCCCC3)cccc2c1Oc1ncccc1-c1ccnc(N[C@H]2CCCNC2)n1 [Example 190, (S)—N-(6-Methyl-5-((3-(2-(piperidin-3-ylamino)pyrimidin-4-yl)pyridin-2-yl)oxy)naphthalen-1-yl)cyclohexanecarboxamide]",273 nM
10,"Cc1ccc2c(NCc3ccn(C)n3)cccc2c1Oc1ncccc1-c1ccnc(N[C@@H]2CNC[C@H](C)C2)n1 [Example 330, 4-(2-((2-Methyl-5-(((1-methyl-1H-pyrazol-3-yl)methyl)amino)naphthalen-1-yl)oxy)pyridin-3-yl)-N-((3S,5R)-5-methylpiperidin-3-yl)pyrimidin-2-amine]",197 nM
11,"Cc1ccc2c(NC(=O)c3ccccc3)cccc2c1Oc1ncccc1-c1ccnc(N[C@H]2CCCNC2)n1 [Example 115, (S)—N-(6-Methyl-5-((3-(2-(piperidin-3-ylamino)pyrimidin-4-yl)pyridin-2-yl)oxy)naphthalen-1-yl)benzamide hydrochloride]",262 nM
12,"Cc1ccc2c(NC(=O)[C@H]3CC34CCCC4)cccc2c1Oc1ncccc1-c1ccnc(N[C@H]2CCCNC2)n1 (single isomer, unassigned) [Example 253]",352 nM
13,"CCCS(=O)(=O)Nc1cccc2c(Oc3ncccc3-c3ccnc(N[C@@H]4CNC[C@H](C)C4)n3)c(C)ccc12 [Example 361, N-(6-Methyl-5-((3-(2-(((3S,5R)-5-methylpiperidin-3-yl)amino)pyrimidin-4-yl)pyridin-2-yl)oxy)naphthalen-1-yl)propane-1-sulfonamide]",85.1 nM
14,"Cc1ccc2c(Oc3ncccc3-c3ccnc(N[C@H]4CCCNC4)n3)c(C)ccc2c1NS(=O)(=O)CCC(F)(F)F [Example 318, (S)—N-(2,6-Dimethyl-5-((3-(2-(piperidin-3-ylamino)pyrimidin-4-yl)pyridin-2-yl)oxy)naphthalen-1-yl)-3,3,3-trifluoropropane-1-sulfonamide]",41.7 nM
15,"Cc1ccc2c(NS(=O)(=O)Cc3cccnc3)cccc2c1Oc1ncccc1-c1ccnc(N[C@H]2CCCNC2)n1 [Example 125, (S)—N-(6-Methyl-5-((3-(2-(piperidin-3-ylamino)pyrimidin-4-yl)pyridin-2-yl)oxy)naphthalen-1-yl)-1-(pyridin-3-yl)methanesulfonamide hydrochloride]",318 nM
16,"Cc1ccc2c(NCCC(C)O)cccc2c1Oc1ncccc1-c1ccnc(N[C@H]2CCCNC2)n1 (mixture of isomers) [Example 390, 4-((6-Methyl-5-((3-(2-((S)-piperidin-3-ylamino)pyrimidin-4-yl)pyridin-2-yl)oxy)naphthalen-1-yl)amino)butan-2-ol]",143 nM
17,"Cc1ccc2c(NC(=O)CC3(C)CC3)cccc2c1Oc1ncccc1-c1ccnc(N[C@H]2CCCNC2)n1 [Example 268, (S)—N-(6-Methyl-5-((3-(2-(piperidin-3-ylamino)pyrimidin-4-yl)pyridin-2-yl)oxy)naphthalen-1-yl)-2-(1-methylcyclopropyl)acetamide]",257 nM
18,"CCC1CC(=O)N(c2cccc3c(Oc4ncccc4-c4ccnc(N[C@H]5CCCNC5)n4)c(C)ccc23)C1 (single isomer, unassigned) [Example 356]",279 nM
19,"Cc1ccc2c(NS(=O)(=O)Cc3ccccc3Cl)c(F)ccc2c1Oc1ncccc1-c1ccnc(N[C@H]2CCCNC2)n1 [Example 102, (S)-1-(2-Chlorophenyl)-N-(2-fluoro-6-methyl-5-((3-(2-(piperidin-3-ylamino)pyrimidin-4-yl)pyridin-2-yl)oxy)naphthalen-1-yl)methanesulfonamide]",4.6 nM

# Same assay, conditions: Table 2; read-out: XBP1s-luc 293 LUC (IC50)
row,SMILES,IC50
1,"Cc1ccc2c(NS(=O)(=O)CCC(F)(F)F)c(F)ccc2c1Oc1ncccc1-c1ccnc(N[C@@H]2CNC[C@@H](F)C2)n1 (single isomer, unassigned) [Example 432, hydrochloride]",28 nM
2,"Cc1ccc2c(NS(=O)(=O)C[C@@H]3CCC3(F)F)c(F)ccc2c1Oc1ncccc1-c1ccnc(N[C@H]2CCCNC2)n1 (single isomer, unassigned) [Example 470, hydrochloride]",24 nM
3,"Cc1ccc2c(NS(=O)(=O)N(C)CCC(F)(F)F)c(F)ccc2c1Oc1ncccc1-c1ccnc(N[C@H]2CCCNC2)n1 [Example 441, 4-[2-[[6-Fluoro-2-methyl-5-[[methyl(3,3,3-trifluoropropyl)sulfamoyl]amino]-1-naphthyl]oxy]-3-pyridyl]-2-[[(3S)-3-piperidyl]amino]pyrimidine hydrochloride]",48 nM
4,"CO[C@@H](C)CS(=O)(=O)Nc1c(F)ccc2c(Oc3ncccc3-c3ccnc(N[C@H]4CCCNC4)n3)c(C)ccc12 (single isomer, unassigned) [Example 393, hydrochloride]",76 nM
5,O=S(=O)(CCC(F)(F)F)Nc1cccc2c(Oc3ncccc3-c3ccnc(N[C@H]4CCCNC4)n3)cccc12 [Example 451],345 nM
6,"CO[C@@H](CNc1cccc2c(Oc3ncccc3-c3ccnc(N[C@@H]4CNC[C@@H](F)C4)n3)c(C)ccc12)C(F)(F)F (single isomer, unassigned) [Example 493, hydrochloride]",21 nM
